Values quoted from earlier work as cited in patent US8697115B2, “Method of improving antioxidant status of an infant” (Abbott Laboratories, priority 2002, dated 2014).

Columns and labels:
[1] = Food Chemicals Codex effective Jul. 1, 1996
[2] = α-tocopherol equivalents; from Vitamin E in Health and Disease, 1993
[3] = capsule with both forms for 5 days prior to giving birth
[4] = adults

Row | SMILES | Activity (IU/mg) [1] | Activity as α-TE (mg/mg compound) [2] | also measured
1 | Cc1c(C)c2c(c(C)c1O)CCC(C)(CCCC(C)CCCC(C)CCCC(C)C)O2 (racemic) [d,l-α-tocopherol, 2DL,4′DL,8′DL-α-tocopherol] | 1.1 IU/mg |  | 
2 | Cc1c(C)c2c(c(C)c1O)CC[C@@](C)(CCC[C@H](C)CCC[C@H](C)CCCC(C)C)O2 [RRR-α-tocopherol, 2R,4′R,8′R-α-tocopherol] | 1.49 IU/mg | 1.0 mg/mg compound | amount in placental cord blood relative to synthetic vitamin E [3]: ~3.5 times; concentration in the mother's own blood at delivery relative to synthetic vitamin E ([3]; in words): nearly twice; enrichment in VLDL secreted by the liver over all-rac-α-tocopherol [4]: 4 fold
3 | CC(C)=CCC/C(C)=C/CC/C(C)=C/CC[C@]1(C)CCc2c(C)c(O)c(C)c(C)c2O1 [RRR-α-tocotrienol] |  | 0.3 mg/mg compound | 
4 | Cc1cc(O)c(C)c2c1O[C@](C)(CCC[C@H](C)CCC[C@H](C)CCCC(C)C)CC2 [RRR-β-tocopherol] |  | 0.5 mg/mg compound | 
5 | CC(C)=CCC/C(C)=C/CC/C(C)=C/CC[C@]1(C)CCc2c(C)c(O)cc(C)c2O1 [RRR-β-tocotrienol] |  | 0.05 mg/mg compound | 
6 | Cc1c(O)cc2c(c1C)O[C@](C)(CCC[C@H](C)CCC[C@H](C)CCCC(C)C)CC2 [RRR-γ-tocopherol] |  | 0.1 mg/mg compound | 
7 | Cc1cc(O)cc2c1O[C@](C)(CCC[C@H](C)CCC[C@H](C)CCCC(C)C)CC2 [RRR-δ-tocopherol] |  | 0.03 mg/mg compound | 
8 | CC(=O)Oc1c(C)c(C)c2c(c1C)CCC(C)(CCCC(C)CCCC(C)CCCC(C)C)O2 (stereo not drawn) [d,l-α-tocopherol acetate] | 1.0 IU/mg | 0.74 mg/mg compound | 
9 | Cc1c(C)c2c(c(C)c1OC(=O)CCC(=O)O)CCC(C)(CCCC(C)CCCC(C)CCCC(C)C)O2 (stereo not drawn) [d,l-α-tocopherol acid succinate] | 0.89 IU/mg |  | 
10 | CC(=O)Oc1c(C)c(C)c2c(c1C)CC[C@@](C)(CCC[C@H](C)CCC[C@H](C)CCCC(C)C)O2 [d-α-tocopherol acetate] | 1.36 IU/mg |  | preferential utilization compared to all-rac-α-tocopheryl acetate ([4]; in words): about twice
11 | Cc1c(C)c2c(c(C)c1OC(=O)CCC(=O)O)CC[C@@](C)(CCC[C@H](C)CCC[C@H](C)CCCC(C)C)O2 [d-α-tocopherol acid succinate] | 1.21 IU/mg |  | 
